These results are taken from ChEMBL document CHEMBL1133052, “Androsterone 3beta-substituted derivatives as inhibitors of type 3 17beta-hydroxysteroid dehydrogenase” (Bioorg Med Chem Lett, 2000).

Holding throughout (type): cell-based
Assay [1] addresses T1, 17-beta-hydroxysteroid dehydrogenase type 3 (Homo sapiens, UniProt P37058).
T1 sequence (P37058 whole entry): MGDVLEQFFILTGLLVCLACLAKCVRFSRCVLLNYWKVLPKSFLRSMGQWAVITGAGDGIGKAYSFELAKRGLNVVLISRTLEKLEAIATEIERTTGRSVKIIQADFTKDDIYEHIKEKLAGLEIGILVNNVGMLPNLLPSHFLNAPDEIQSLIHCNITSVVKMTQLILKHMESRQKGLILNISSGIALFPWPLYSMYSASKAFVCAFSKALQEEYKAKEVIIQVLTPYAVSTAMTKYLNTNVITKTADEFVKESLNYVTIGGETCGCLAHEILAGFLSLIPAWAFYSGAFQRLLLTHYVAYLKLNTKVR
Briefly: Inhibitory concentration against type-3 17-beta-HSD expressed in HEK293 cells.

Assay [2] addresses T2, 17-beta-hydroxysteroid dehydrogenase type 3 (Homo sapiens) (UniProt P37058).
T2 sequence (whole entry): T1 sequence (P37058 whole entry)
Kind of assay: Percent inhibition against type-3 17-beta-HSD expressed in HEK293 cells at 3 uM.

The target of assay [3] is T2, 17-beta-hydroxysteroid dehydrogenase type 3 (Homo sapiens). Kind of assay: Percent inhibition against type-3 17-beta-HSD expressed in HEK293 cells at 0.3 uM.

As for `C[C@]12CCC(=O)C=C1CC[C@@H]1[C@@H]2CC[C@]2(C)C(=O)CC[C@@H]12` [ANDROSTENEDIONE], in assay [1], the midpoint of inhibition, the IC50, lay at 758 nM. Moreover, the inhibition – broadly, the drop in the measured response relative to a control, in per cent – in assay [2] came to 78%; in assay [3], 24%.
For `C[C@]12CC[C@](O)(C3CCCCC3)CC1CC[C@@H]1[C@@H]2CC[C@]2(C)C(=O)CC[C@@H]12` (stereo partly drawn), in assay [1], it took 97 nM to reach half-maximal inhibition (IC50). Further, the inhibition in assay [2] was determined as 93%; in assay [3] it was 88%.
The matching figures for `C[C@]12CC[C@](O)(CCc3ccccc3)CC1CC[C@@H]1[C@@H]2CC[C@]2(C)C(=O)CC[C@@H]12` (stereo partly drawn): 99 nM, 93% and 93%.
The matching figures for `C[C@]12CC[C@](O)(CCC3CCCCC3)CC1CC[C@@H]1[C@@H]2CC[C@]2(C)C(=O)CC[C@@H]12` (stereo partly drawn): 60 nM, 93% and 92%.
As for `CCCCCCCC[C@@]1(O)CC[C@@]2(C)C(CC[C@@H]3[C@@H]2CC[C@]2(C)C(=O)CC[C@@H]32)C1` (stereo partly drawn), the IC50 (usually the midpoint of a concentration-inhibition curve) in assay [1] was found to be 147 nM. The inhibition in assay [2] is 92%; in assay [3], 88%.
The corresponding values for `C[C@]12CC[C@@H](O)C[C@H]1CC[C@@H]1[C@@H]2CC[C@]2(C)C(=O)CC[C@@H]12` [ETIOCHOLANOLONE] are 330 nM, 88% and 50%.
In turn, `CCC(C)[C@@]1(O)CC[C@@]2(C)C(CC[C@@H]3[C@@H]2CC[C@]2(C)C(=O)CC[C@@H]32)C1` (stereo partly drawn) came in with a half-maximal inhibitory concentration (IC50) in assay [1] of 73 nM. Besides, the inhibition in assay [2] came out at 90%; in assay [3], 85%.
Turning to `C[C@@]1(O)CC[C@@]2(C)C(CC[C@@H]3[C@@H]2CC[C@]2(C)C(=O)CC[C@@H]32)C1` (stereo partly drawn), the inhibition in assay [2] turned out to be 93%; in assay [3], 72%.
On to `CCCCCC[C@@]1(O)CC[C@@]2(C)C(CC[C@@H]3[C@@H]2CC[C@]2(C)C(=O)CC[C@@H]32)C1` (stereo partly drawn), for which inhibition in assay [1] was half-maximal at 100 nM (IC50). Also, the values for the inhibition in assay [2] and in assay [3] were 96% and 93%, respectively.
On to `C[C@]12CC[C@](O)(CC3CCCCC3)CC1CC[C@@H]1[C@@H]2CC[C@]2(C)C(=O)CC[C@@H]12` (stereo partly drawn), for which, in assay [1], the midpoint of inhibition, the IC50, lay at 87 nM. Besides, the inhibition in assay [2] is 95%; in assay [3], 93%.
Turning to `C[C@]12CC[C@](O)(Cc3ccccc3)CC1CC[C@@H]1[C@@H]2CC[C@]2(C)C(=O)CC[C@@H]12` (stereo partly drawn), the 50% inhibitory concentration (IC50) in assay [1] was 57 nM. Moreover, the inhibition is 94% in assay [2] and 90% in assay [3].
The matching figures for `CCC[C@@]1(O)CC[C@@]2(C)C(CC[C@@H]3[C@@H]2CC[C@]2(C)C(=O)CC[C@@H]32)C1` (stereo partly drawn): 67 nM, 94% and 89%.
The matching figures for `C[C@]12CC[C@](O)(c3ccccc3)CC1CC[C@@H]1[C@@H]2CC[C@]2(C)C(=O)CC[C@@H]12` (stereo partly drawn): 81 nM, 95% and 88%.
